# Measurements from publication PMC11338008, “Development and validation of CYP26A1 inhibition assay for high-throughput screening” (Biotechnology journal, 2024).
# Entries after “also recorded” stand apart in the source; their conditions may differ.
# Tested on: CYP26B1, CYP1A2, CYP3A4, CYP2C9, CYP2C19, CYP2D6
# Test: Selectivity across other P450-Glo CYP assays (heatmap, Figure 5)
# Details: compared with CYP26A1 assay
# Protocol: The CYP26B1 assay was a custom assay prepared as described above except it contained recombinant human CYP26B1 co-expressed with POR in E. coli (Cypex/BioIVT, Dundee, Scotland, UK; catalog # CYP071) in place of the Cyp26a1 sequence. […] The luminescence signal in each well was measured using a ViewLux plate reader.
row,SMILES,"activity pattern / selectivity across CYP assays, in words"
1,OC(Cn1cncn1)(Cn1cncn1)c1ccc(F)cc1F [Fluconazole],"inhibitory effects in the CYP26A1 assay similar to their activity patterns on CYP26B1, CYP3A4, CYP2C9, and CYP2C19"
2,CCCN(CCOc1c(Cl)cc(Cl)cc1Cl)C(=O)n1ccnc1 [Prochloraz],"inhibitory effects in the CYP26A1 assay similar to their activity patterns on CYP26B1, CYP3A4, CYP2C9, and CYP2C19"
3,"CCC(CC)C(c1ccc(Nc2nc3ccccc3s2)cc1)n1cncn1 (centres unmarked) [R115866/Talarozole, Talarozole]","inhibitory effects in the CYP26A1 assay similar to their activity patterns on CYP26B1, CYP3A4, CYP2C9, and CYP2C19; also recorded: broad-spectrum inhibition across various CYP enzymes; also recorded: significant potency in both CYP26A1/B1 and CYP3A4 assays"
4,CC(C)(C)C(=O)C(Oc1ccc(Cl)cc1)n1cncn1 (centres unmarked) [Triadimefon],"inhibitory effects in the CYP26A1 assay similar to their activity patterns on CYP26B1, CYP3A4, CYP2C9, and CYP2C19"
5,CCCOC/C(=N\c1ccc(Cl)cc1C(F)(F)F)n1ccnc1 [Triflumizole],"inhibitory effects in the CYP26A1 assay similar to their activity patterns on CYP26B1, CYP3A4, CYP2C9, and CYP2C19"
